In PMC11873239, “A covalent chemical probe for Chikungunya nsP2 cysteine protease with antialphaviral activity and proteome-wide selectivity” (Scientific Reports, 2025):

What was measured:
CHIKV nsP2pro = CHIKV nsP2pro (Chikungunya virus, UniProt F2YI08); experiment: biochemical
[1] = biological target: HEK293 cell lysate proteins (Homo sapiens, UniProt O75342); assay type: binding
[2] = biological target: HEK293 cell lysate proteins (Homo sapiens, UniProt P02788); assay type: binding
[3] = biological target: HEK293 cell lysate proteins (Homo sapiens, UniProt P04406); assay type: binding
[4] = biological target: HEK293 cell lysate proteins (Homo sapiens, UniProt P05089); assay type: binding
[5] = biological target: HEK293 cell lysate proteins (Homo sapiens, UniProt P06702); assay type: binding
[6] = biological target: HEK293 cell lysate proteins (Homo sapiens, UniProt P07339); assay type: binding
[7] = biological target: HEK293 cell lysate proteins (Homo sapiens, UniProt P07355); assay type: binding
[8] = biological target: HEK293 cell lysate proteins (Homo sapiens, UniProt P0DOX5); assay type: binding
[9] = biological target: HEK293 cell lysate proteins (Homo sapiens, UniProt P11142); assay type: binding
[10] = biological target: HEK293 cell lysate proteins (Homo sapiens, UniProt P11586); assay type: binding
[11] = biological target: HEK293 cell lysate proteins (Homo sapiens, UniProt P15924); assay type: binding
[12] = biological target: HEK293 cell lysate proteins (Homo sapiens, UniProt P22531); assay type: binding
[13] = biological target: HEK293 cell lysate proteins (Homo sapiens, UniProt P25311); assay type: binding
HEK293 cell lysate proteins (Homo sapiens, UniProt P25311), sequence (P25311 21-298): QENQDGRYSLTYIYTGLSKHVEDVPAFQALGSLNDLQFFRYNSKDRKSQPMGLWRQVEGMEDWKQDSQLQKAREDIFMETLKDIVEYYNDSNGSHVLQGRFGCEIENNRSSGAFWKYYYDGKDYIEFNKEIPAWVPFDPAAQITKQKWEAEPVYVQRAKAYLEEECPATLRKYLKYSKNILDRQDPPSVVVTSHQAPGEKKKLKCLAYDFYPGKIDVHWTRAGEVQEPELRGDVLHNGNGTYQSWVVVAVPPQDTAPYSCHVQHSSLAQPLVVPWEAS

[14] = biological target: HEK293 cell lysate proteins (Homo sapiens, UniProt P26358); assay type: binding
[15] = biological target: HEK293 cell lysate proteins (Homo sapiens, UniProt P27708); assay type: binding
[16] = biological target: HEK293 cell lysate proteins (Homo sapiens, UniProt P31025); assay type: binding
[17] = biological target: HEK293 cell lysate proteins (Homo sapiens, UniProt P31151); assay type: binding
[18] = biological target: HEK293 cell lysate proteins (Homo sapiens, UniProt P31944); assay type: binding
HEK293 cell lysate proteins (Homo sapiens, UniProt P31944), sequence (P31944 6-242): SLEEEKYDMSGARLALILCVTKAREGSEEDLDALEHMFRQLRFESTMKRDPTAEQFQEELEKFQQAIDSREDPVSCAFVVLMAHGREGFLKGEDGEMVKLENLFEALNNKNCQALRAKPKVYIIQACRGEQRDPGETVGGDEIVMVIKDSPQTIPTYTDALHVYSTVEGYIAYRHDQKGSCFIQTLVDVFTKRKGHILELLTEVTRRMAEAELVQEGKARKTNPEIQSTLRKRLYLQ

[19] = biological target: HEK293 cell lysate proteins (Homo sapiens, UniProt P32119); assay type: binding
[20] = biological target: HEK293 cell lysate proteins (Homo sapiens, UniProt P41252); assay type: binding
[21] = biological target: HEK293 cell lysate proteins (Homo sapiens, UniProt P42357); assay type: binding
[22] = biological target: HEK293 cell lysate proteins (Homo sapiens, UniProt P61626); assay type: binding
[23] = biological target: HEK293 cell lysate proteins (Homo sapiens, UniProt P84103); assay type: binding
[24] = biological target: HEK293 cell lysate proteins (Homo sapiens, UniProt Q01469); assay type: binding
HEK293 cell lysate proteins (Homo sapiens, UniProt Q01469), sequence (Q01469 whole entry, looked up): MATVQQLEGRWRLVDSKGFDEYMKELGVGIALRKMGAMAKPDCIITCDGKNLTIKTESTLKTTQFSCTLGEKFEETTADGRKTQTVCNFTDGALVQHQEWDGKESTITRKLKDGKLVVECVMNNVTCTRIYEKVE

[25] = biological target: HEK293 cell lysate proteins (Homo sapiens, UniProt Q03164); assay type: binding
[26] = biological target: HEK293 cell lysate proteins (Homo sapiens, UniProt Q08188); assay type: binding
[27] = biological target: HEK293 cell lysate proteins (Homo sapiens, UniProt Q13428); assay type: binding
HEK293 cell lysate proteins (Homo sapiens, UniProt Q13428), sequence (Q13428 whole entry): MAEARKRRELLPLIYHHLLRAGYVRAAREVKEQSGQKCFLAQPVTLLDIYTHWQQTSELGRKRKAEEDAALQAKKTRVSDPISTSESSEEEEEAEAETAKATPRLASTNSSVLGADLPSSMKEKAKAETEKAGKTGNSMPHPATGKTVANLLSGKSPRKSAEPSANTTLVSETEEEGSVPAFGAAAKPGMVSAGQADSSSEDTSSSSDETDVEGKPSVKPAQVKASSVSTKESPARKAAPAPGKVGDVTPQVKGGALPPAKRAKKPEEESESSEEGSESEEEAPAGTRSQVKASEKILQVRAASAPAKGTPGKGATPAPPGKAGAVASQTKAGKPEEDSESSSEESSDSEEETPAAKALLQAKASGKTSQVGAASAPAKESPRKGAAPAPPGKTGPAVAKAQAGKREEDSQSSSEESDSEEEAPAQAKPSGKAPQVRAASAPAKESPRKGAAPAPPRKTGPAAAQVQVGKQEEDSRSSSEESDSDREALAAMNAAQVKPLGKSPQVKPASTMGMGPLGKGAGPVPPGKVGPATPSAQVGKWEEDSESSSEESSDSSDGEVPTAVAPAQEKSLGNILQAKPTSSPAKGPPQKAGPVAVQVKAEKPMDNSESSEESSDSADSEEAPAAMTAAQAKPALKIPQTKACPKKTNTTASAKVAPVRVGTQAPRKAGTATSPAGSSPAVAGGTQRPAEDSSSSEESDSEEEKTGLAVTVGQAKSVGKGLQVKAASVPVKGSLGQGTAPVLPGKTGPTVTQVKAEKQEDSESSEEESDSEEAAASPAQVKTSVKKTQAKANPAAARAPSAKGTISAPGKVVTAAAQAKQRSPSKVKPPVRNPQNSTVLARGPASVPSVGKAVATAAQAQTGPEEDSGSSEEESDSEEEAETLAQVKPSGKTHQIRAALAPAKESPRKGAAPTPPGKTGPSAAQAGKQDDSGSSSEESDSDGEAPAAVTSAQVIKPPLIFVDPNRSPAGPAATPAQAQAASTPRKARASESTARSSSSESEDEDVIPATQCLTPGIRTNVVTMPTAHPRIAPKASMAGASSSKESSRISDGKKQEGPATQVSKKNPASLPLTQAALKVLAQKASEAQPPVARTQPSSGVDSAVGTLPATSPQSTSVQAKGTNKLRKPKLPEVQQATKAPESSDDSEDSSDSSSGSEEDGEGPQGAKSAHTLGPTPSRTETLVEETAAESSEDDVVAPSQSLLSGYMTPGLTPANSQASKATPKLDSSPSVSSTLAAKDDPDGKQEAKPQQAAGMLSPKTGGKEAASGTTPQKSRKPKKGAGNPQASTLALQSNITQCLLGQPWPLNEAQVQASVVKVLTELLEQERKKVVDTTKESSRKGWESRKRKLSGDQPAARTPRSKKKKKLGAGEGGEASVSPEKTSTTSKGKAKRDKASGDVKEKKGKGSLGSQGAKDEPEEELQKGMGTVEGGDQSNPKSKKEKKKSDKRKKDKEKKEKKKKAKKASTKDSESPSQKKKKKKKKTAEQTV

[28] = biological target: HEK293 cell lysate proteins (Homo sapiens, UniProt Q13835); assay type: binding
HEK293 cell lysate proteins (Homo sapiens, UniProt Q13835), sequence (Q13835 whole entry): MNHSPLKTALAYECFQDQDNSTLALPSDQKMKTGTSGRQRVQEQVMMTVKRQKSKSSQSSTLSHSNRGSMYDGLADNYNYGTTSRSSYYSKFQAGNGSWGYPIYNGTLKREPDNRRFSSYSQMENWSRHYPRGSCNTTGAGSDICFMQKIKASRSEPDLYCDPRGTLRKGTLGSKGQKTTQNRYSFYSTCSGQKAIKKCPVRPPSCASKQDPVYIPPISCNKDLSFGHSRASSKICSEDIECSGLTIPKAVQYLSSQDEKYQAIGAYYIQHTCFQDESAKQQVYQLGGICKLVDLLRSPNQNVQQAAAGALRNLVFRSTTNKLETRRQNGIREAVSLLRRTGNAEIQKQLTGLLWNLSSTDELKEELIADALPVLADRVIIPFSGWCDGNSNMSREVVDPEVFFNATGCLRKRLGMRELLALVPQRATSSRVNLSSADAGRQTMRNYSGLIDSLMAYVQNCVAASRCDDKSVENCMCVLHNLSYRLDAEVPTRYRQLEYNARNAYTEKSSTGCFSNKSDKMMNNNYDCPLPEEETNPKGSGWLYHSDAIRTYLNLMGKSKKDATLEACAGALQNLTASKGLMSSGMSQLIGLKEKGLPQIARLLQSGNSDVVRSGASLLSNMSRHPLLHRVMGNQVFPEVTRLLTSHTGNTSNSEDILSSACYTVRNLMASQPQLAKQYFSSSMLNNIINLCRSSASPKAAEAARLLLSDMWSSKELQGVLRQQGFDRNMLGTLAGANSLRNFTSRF

[29] = biological target: HEK293 cell lysate proteins (Homo sapiens, UniProt Q13867); assay type: binding
[30] = biological target: HEK293 cell lysate proteins (Homo sapiens, UniProt Q14151); assay type: binding
[31] = biological target: HEK293 cell lysate proteins (Homo sapiens, UniProt Q14684); assay type: binding
HEK293 cell lysate proteins (Homo sapiens, UniProt Q14684), sequence (Q14684 whole entry): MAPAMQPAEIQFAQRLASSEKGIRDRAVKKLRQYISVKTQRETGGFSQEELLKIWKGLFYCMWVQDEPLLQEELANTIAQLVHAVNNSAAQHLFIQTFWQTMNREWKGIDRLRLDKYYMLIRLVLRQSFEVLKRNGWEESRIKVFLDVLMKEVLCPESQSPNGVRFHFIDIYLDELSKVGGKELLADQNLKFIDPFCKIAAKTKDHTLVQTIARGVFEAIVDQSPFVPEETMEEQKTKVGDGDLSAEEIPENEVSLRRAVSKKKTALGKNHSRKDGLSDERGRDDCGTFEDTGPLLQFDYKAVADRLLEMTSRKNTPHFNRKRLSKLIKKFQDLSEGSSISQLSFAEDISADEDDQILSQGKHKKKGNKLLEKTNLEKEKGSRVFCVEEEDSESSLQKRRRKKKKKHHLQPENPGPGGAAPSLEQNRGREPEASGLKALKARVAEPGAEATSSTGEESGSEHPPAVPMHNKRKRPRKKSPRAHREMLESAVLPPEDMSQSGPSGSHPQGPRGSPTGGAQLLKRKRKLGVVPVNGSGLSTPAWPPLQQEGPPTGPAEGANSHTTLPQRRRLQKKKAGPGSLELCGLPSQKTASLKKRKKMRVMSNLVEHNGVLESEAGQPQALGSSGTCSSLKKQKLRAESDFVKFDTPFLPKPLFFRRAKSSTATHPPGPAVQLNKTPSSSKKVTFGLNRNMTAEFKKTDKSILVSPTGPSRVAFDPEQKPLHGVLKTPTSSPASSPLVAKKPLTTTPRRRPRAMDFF

[32] = biological target: HEK293 cell lysate proteins (Homo sapiens, UniProt Q15424); assay type: binding
[33] = biological target: HEK293 cell lysate proteins (Homo sapiens, UniProt Q15517); assay type: binding
[34] = biological target: HEK293 cell lysate proteins (Homo sapiens, UniProt Q52LG2); assay type: binding
[35] = biological target: HEK293 cell lysate proteins (Homo sapiens, UniProt Q5T749); assay type: binding
[36] = biological target: HEK293 cell lysate proteins (Homo sapiens, UniProt Q5T750); assay type: binding
[37] = biological target: HEK293 cell lysate proteins (Homo sapiens, UniProt Q6ZVX7); assay type: binding
[38] = biological target: HEK293 cell lysate proteins (Homo sapiens, UniProt Q8N1N4); assay type: binding
[39] = biological target: HEK293 cell lysate proteins (Homo sapiens, UniProt Q8WVV4); assay type: binding
[40] = biological target: HEK293 cell lysate proteins (Homo sapiens, UniProt Q96QA5); assay type: binding
[41] = biological target: HEK293 cell lysate proteins (Homo sapiens, UniProt Q9HCY8); assay type: binding

HEK293 cell lysate proteins (Homo sapiens, UniProt O75342), sequence (O75342 whole entry): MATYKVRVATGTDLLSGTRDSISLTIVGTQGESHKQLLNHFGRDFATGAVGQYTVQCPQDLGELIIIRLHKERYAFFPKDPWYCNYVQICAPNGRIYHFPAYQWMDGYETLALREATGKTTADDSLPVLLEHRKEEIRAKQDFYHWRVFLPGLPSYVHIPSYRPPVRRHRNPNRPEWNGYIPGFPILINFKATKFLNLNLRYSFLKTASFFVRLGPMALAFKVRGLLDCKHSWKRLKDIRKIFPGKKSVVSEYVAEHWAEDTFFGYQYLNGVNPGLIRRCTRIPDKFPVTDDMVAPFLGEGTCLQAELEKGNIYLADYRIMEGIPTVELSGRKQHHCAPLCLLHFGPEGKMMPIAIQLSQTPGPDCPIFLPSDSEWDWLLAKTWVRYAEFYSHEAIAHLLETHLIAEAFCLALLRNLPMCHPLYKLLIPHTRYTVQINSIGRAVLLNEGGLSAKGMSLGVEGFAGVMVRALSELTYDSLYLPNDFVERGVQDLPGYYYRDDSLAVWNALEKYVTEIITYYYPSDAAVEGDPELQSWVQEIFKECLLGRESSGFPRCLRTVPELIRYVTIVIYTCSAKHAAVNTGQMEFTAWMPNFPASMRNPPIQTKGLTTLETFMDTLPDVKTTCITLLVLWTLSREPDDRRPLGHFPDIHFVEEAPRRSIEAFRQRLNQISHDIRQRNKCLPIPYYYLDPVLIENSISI
HEK293 cell lysate proteins (Homo sapiens, UniProt P02788), sequence (P02788 20-710): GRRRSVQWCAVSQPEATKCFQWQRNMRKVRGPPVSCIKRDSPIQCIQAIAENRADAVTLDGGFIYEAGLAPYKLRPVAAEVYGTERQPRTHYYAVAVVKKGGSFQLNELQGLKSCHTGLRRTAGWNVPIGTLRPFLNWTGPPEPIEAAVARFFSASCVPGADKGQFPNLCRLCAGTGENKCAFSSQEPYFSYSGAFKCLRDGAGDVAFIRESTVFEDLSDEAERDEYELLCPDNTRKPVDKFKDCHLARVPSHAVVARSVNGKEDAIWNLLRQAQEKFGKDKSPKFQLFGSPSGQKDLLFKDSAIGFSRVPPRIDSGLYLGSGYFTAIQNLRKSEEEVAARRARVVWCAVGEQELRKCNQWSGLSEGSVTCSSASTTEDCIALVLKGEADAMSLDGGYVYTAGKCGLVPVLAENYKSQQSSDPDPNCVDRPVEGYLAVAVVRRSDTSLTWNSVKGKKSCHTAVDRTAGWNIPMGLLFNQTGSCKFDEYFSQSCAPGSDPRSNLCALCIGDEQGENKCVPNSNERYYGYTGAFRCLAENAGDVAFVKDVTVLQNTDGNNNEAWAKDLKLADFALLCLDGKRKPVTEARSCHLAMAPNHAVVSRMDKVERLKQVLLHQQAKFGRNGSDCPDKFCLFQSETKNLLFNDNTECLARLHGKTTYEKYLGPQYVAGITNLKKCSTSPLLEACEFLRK

C#CCOc1ccccc1-c1cc(C(=O)NC/C=C/S(C)(=O)=O)on1 [VS, (E)-N-(3-(methylsulfonyl)allyl)−3-(2-(prop-2-yn-1-yloxy)phenyl)isoxazole-5-carboxamide]
IC50 (CHIKV nsP2pro): 65 nM | Log2 fold change [1]: 2.14 | Log2 fold change [2]: 1.10 | Log2 fold change [3]: 1.78 | Log2 fold change [4]: 1.79 | Log2 fold change [5]: 1.63 | Log2 fold change [6]: 1.67 | Log2 fold change [7]: 1.52 | Log2 fold change [8]: 1.84 | Log2 fold change [9]: 1.15 | Log2 fold change [10]: -1.66 | Log2 fold change [11]: 2.05 | Log2 fold change [12]: 2.37 | Log2 fold change [13]: 1.43 | Log2 fold change [14]: 1.64 | Log2 fold change [15]: 3.73 | Log2 fold change [16]: 1.54 | Log2 fold change [17]: -1.22 | Log2 fold change [18]: 1.29 | Log2 fold change [19]: 2.04 | Log2 fold change [20]: 1.48 | Log2 fold change [21]: 1.12 | Log2 fold change [22]: 1.36 | Log2 fold change [23]: 1.43 | Log2 fold change [24]: 2.38 | Log2 fold change [25]: -1.44 | Log2 fold change [26]: 1.61 | Log2 fold change [27]: 1.02 | Log2 fold change [28]: 3.81 | Log2 fold change [29]: 1.56 | Log2 fold change [30]: 1.50 | Log2 fold change [31]: -2.16 | Log2 fold change [32]: 1.46 | Log2 fold change [33]: 1.22 | Log2 fold change [34]: 3.14 | Log2 fold change [35]: 2.53 | Log2 fold change [36]: 2.49 | Log2 fold change [37]: 2.74 | Log2 fold change [38]: 1.62 | Log2 fold change [39]: 5.21 | Log2 fold change [40]: 1.51 | Log2 fold change [41]: 1.98
